Measurements: patent publication US6737383B1, “Herbicidal oxadiazolidines” (priority 1999, dated 2004)

Key:
[1] = test system: corn; assay: Test B pre/postemergence corn; assay type: in vivo, Zea mays
Procedure, shortened: (§1)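 Response is a visual 0-to-10 score relative to untreated plants, where 0 means no effect and 10 means complete control, taken twelve to sixteen days after application. Treatments went onto soil at planting and onto foliage of 1- to 4-leaf plants, using a surfactant-containing non-phytotoxic solvent.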

[2] = test system: pigweed; assay: Test B pre/postemergence pigweed; assay type: in vivo, Amaranthus retroflexus
Procedure, shortened: as §1

[3] = test system: giant foxtail; assay: Test B pre/postemergence giant foxtail; assay type: in vivo, Setaria faberii
Procedure, shortened: as §1

[4] = test system: crabgrass; assay: Test B pre/postemergence crabgrass; assay type: in vivo, Digitaria sanguinalis
Procedure, shortened: as §1

[5] = test system: bamyardgrass; assay: Test B flood test barnyardgrass; assay type: in vivo, Echinochloa crus-galli
Procedure, shortened: (§2)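 Each value is a visual injury score relative to controls, with 10 meaning complete control and 0 no effect. Evaluation took place twelve to sixteen days after the 2-leaf-stage plants were treated and kept in the greenhouse.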

[6] = test system: velvetleaf; assay: Test B pre/postemergence velvetleaf; assay type: in vivo, Abutilon theophrasti
Procedure, shortened: as §1

[7] = test system: purple nutsedge; assay: Test B pre/postemergence purple nutsedge; assay type: in vivo, Cyperus rotundus
Procedure, shortened: as §1

[8] = test system: morningglory; assay: Test B pre/postemergence morningglory; assay type: in vivo, Ipomoea hederacea
Procedure, shortened: as §1

[9] = test system: soybean; assay: Test B pre/postemergence soybean; assay type: in vivo, Glycine max
Procedure, shortened: as §1

[10] = test system: blackgrass; assay: Test B pre/postemergence blackgrass; assay type: in vivo, Alopecurus myosuroides
Procedure, shortened: as §1

[11] = test system: smallflower flatsedge; assay: Test B flood test smallflower flatsedge; assay type: in vivo, Cyperus difformis
Procedure, shortened: as §2

[12] = test system: rape; assay: Test B pre/postemergence rape; assay type: in vivo, Brassica napus
Procedure, shortened: as §1

[13] = test system: wild oat; assay: Test B pre/postemergence wild oat; assay type: in vivo, Avena fatua
Procedure, shortened: as §1

[14] = test system: surinam grass; assay: Test B pre/postemergence surinam grass; assay type: in vivo, Brachiaria decumbens
Procedure, shortened: as §1

[15] = test system: sugar beet; assay: Test B pre/postemergence sugar beet; assay type: in vivo, Beta vulgaris
Procedure, shortened: as §1

[16] = test system: cocklebur; assay: Test B pre/postemergence cocklebur; assay type: in vivo, Xanthium strumarium
Procedure, shortened: as §1

[17] = Preemergence, Rate 62 g/ha, scale of 0 to 10 where 0 is no effect and 10 is complete control
[18] = Preemergence, Rate 250 g/ha, scale of 0 to 10 where 0 is no effect and 10 is complete control
[19] = Preemergence, Rate 500 g/ha, scale of 0 to 10 where 0 is no effect and 10 is complete control
[20] = Rate 62 g/ha, Postemergence, scale of 0 to 10 where 0 is no effect and 10 is complete control
[21] = Rate 125 g/ha, Preemergence, scale of 0 to 10 where 0 is no effect and 10 is complete control
[22] = Rate 500 g/ha, Postemergence, scale 0 to 10, 0 no effect, 10 complete control
[23] = Rate 62 g/ha, headed Pre-emergence (flood test species), scale 0 to 10 (0 no effect, 10 complete control)
[24] = Rate 125 g/ha, Pre-emergence, flood test species, scale 0 to 10 where 0 is no effect and 10 is complete control
[25] = Rate 250 g/ha, Pre-emergence, flood-test species, scale 0 to 10, 0 is no effect, 10 is complete control
[26] = Rate 500 g/ha, Pre-emergence, flood test species, scale 0 to 10 (0 no effect, 10 complete control)
[27] = Rate 125 g/ha, Postemergence, scale 0 to 10
[28] = Rate 125 g/ha, Postemergence, scale 0 (no effect) to 10 (complete control)

CC(C)N(C(=O)n1oc(=O)n(C2CC2)c1=O)c1ccc(F)cc1 [Compound 242]
9: Plant response rating, Corn [1, 19] | Redroot pigweed plant response rating [2, 17] | Giant foxtail plant response rating [3, 22] | Crabgrass plant response rating [4, 17] | Plant response rating (0 to 10; 0 is no effect, 10 is complete control), Crabgrass ([4]; Rate 250 g/ha, Postemergence) | Crabgrass plant response rating [4, 22] | Blackgrass plant response rating [10, 17] | Blackgrass plant response rating [10, 27] | Plant response rating (0 to 10; 0 is no effect, 10 is complete control), Blackgrass ([10]; Rate 250 g/ha, Postemergence) | Blackgrass plant response rating [10, 22] | Wild oats plant response rating [13, 18] | Wild oats plant response rating [13, 21] | B. signalgrass plant response rating [14, 18] | B. signalgrass plant response rating [14, 21] | B. signalgrass plant response rating [14, 22]
0: Corn plant response rating [1, 17] | Corn plant response rating [1, 20] | Corn plant response rating [1, 21] | Plant response rating (0 to 10; 0 is no effect, 10 is complete control), Corn ([1]; Rate 250 g/ha, Postemergence) | Redroot pigweed plant response rating [2, 20] | Barnyardgrass plant response rating [5, 23] | Barnyardgrass plant response rating [5, 24] | Barnyardgrass plant response rating [5, 25] | Barnyardgrass plant response rating [5, 26] | Nutsedge plant response rating [7, 20] | Morningglory plant response rating [8, 20] | Soybean plant response rating [9, 17] | S. Flatsedge plant response rating [11, 23] | S. Flatsedge plant response rating [11, 24] | S. Flatsedge plant response rating [11, 25] | S. Flatsedge plant response rating [11, 26] | Rape plant response rating [12, 17] | Rape plant response rating [12, 20] | Wild oats plant response rating [13, 20] | Sugarbeets plant response rating [15, 20]
7: Giant foxtail plant response rating [3, 20] | Velvetleaf plant response rating [6, 22] | Plant response rating (0 to 10; 0 is no effect, 10 is complete control), Morningglory ([8]; Rate 250 g/ha, Postemergence) | Plant response rating, Soybean [9, 19] | Wild oats plant response rating [13, 17] | Sugarbeets plant response rating [15, 21] | Plant response rating (0 to 10; 0 is no effect, 10 is complete control), Cocklebur ([16]; Rate 250 g/ha, Postemergence) | Cocklebur plant response rating [16, 22]
5: Nutsedge plant response rating [7, 22] | Morningglory plant response rating [8, 18] | Cocklebur plant response rating [16, 20] | Cocklebur plant response rating [16, 27]
1: B. signalgrass plant response rating [14, 20]
2: Morningglory plant response rating [8, 17] | Morningglory plant response rating [8, 21] | Soybean plant response rating [9, 21] | Cocklebur plant response rating [16, 17] | Cocklebur plant response rating [16, 18]
8: Redroot pigweed plant response rating [2, 22] | Plant response rating (0 to 10; 0 is no effect, 10 is complete control), Giant foxtail ([3]; Rate 250 g/ha, Postemergence) | Crabgrass plant response rating [4, 20] | Velvetleaf plant response rating [6, 18] | Velvetleaf plant response rating [6, 21] | Morningglory plant response rating [8, 22] | Blackgrass plant response rating [10, 20] | Rape plant response rating [12, 22] | Wild oats plant response rating [13, 22] | B. signalgrass plant response rating [14, 28] | Plant response rating (0 to 10; 0 is no effect, 10 is complete control), B. signalgrass ([14]; Rate 250 g/ha, Postemergence) | Plant response rating, Sugarbeets [15, 19] | Sugarbeets plant response rating [15, 22]
6: Corn plant response rating [1, 18] | Corn plant response rating [1, 22] | Velvetleaf plant response rating [6, 17] | Soybean plant response rating [9, 18] | Soybean plant response rating [9, 22] | Rape plant response rating [12, 21] | B. signalgrass plant response rating [14, 17]
3: Velvetleaf plant response rating [6, 20] | Sugarbeets plant response rating [15, 17] | Plant response rating, Cocklebur [16, 19]
10: Redroot pigweed plant response rating [2, 18] | Plant response rating, Redroot pigweed [2, 19] | Redroot pigweed plant response rating [2, 21] | Giant foxtail plant response rating [3, 17] | Giant foxtail plant response rating [3, 18] | Plant response rating, Giant foxtail [3, 19] | Giant foxtail plant response rating [3, 21] | Crabgrass plant response rating [4, 18] | Plant response rating, Crabgrass [4, 19] | Crabgrass plant response rating [4, 21] | Plant response rating, Velvetleaf [6, 19] | Nutsedge plant response rating [7, 17] | Nutsedge plant response rating [7, 18] | Plant response rating, Nutsedge [7, 19] | Nutsedge plant response rating [7, 21] | Plant response rating, Morningglory [8, 19] | Blackgrass plant response rating [10, 18] | Plant response rating, Blackgrass [10, 19] | Blackgrass plant response rating [10, 21] | Rape plant response rating [12, 18] | Plant response rating, Rape [12, 19] | Plant response rating, Wild oats [13, 19] | Plant response rating, B. signalgrass [14, 19]
4: Plant response rating (0 to 10; 0 is no effect, 10 is complete control), Redroot pigweed ([2]; Rate 250 g/ha, Postemergence) | Soybean plant response rating [9, 20] | Plant response rating (0 to 10; 0 is no effect, 10 is complete control), Rape ([12]; Rate 250 g/ha, Postemergence)

CC(C)N(C(=O)n1oc(=O)n(CC(C)(C)C)c1=O)c1ccc(F)cc1 [Compound 246]
3: Plant response rating, Corn [1, 19] | Plant response rating, Redroot pigweed [2, 19] | Redroot pigweed plant response rating [2, 22] | Crabgrass plant response rating [4, 17] | Crabgrass plant response rating [4, 21] | Crabgrass plant response rating [4, 22] | Velvetleaf plant response rating [6, 22] | Nutsedge plant response rating [7, 22] | Wild oats plant response rating [13, 21] | B. signalgrass plant response rating [14, 18]
8: Giant foxtail plant response rating [3, 17] | Giant foxtail plant response rating [3, 22] | Barnyardgrass plant response rating [5, 26] | Blackgrass plant response rating [10, 22] | Plant response rating, Wild oats [13, 19] | Plant response rating, Sugarbeets [15, 19]
4: Velvetleaf plant response rating [6, 18] | Soybean plant response rating [9, 22]
9: Giant foxtail plant response rating [3, 21] | Plant response rating (0 to 10; 0 is no effect, 10 is complete control), Morningglory ([8]; Rate 250 g/ha, Postemergence) | Morningglory plant response rating [8, 22]
2: Plant response rating (0 to 10; 0 is no effect, 10 is complete control), Redroot pigweed ([2]; Rate 250 g/ha, Postemergence) | Velvetleaf plant response rating [6, 21] | Plant response rating, Soybean [9, 19] | Blackgrass plant response rating [10, 27] | Rape plant response rating [12, 21] | Wild oats plant response rating [13, 17] | B. signalgrass plant response rating [14, 21] | Sugarbeets plant response rating [15, 18] | Cocklebur plant response rating [16, 22]
6: Blackgrass plant response rating [10, 18] | Plant response rating (0 to 10; 0 is no effect, 10 is complete control), Blackgrass ([10]; Rate 250 g/ha, Postemergence) | Wild oats plant response rating [13, 18]
5: Plant response rating (0 to 10; 0 is no effect, 10 is complete control), Giant foxtail ([3]; Rate 250 g/ha, Postemergence) | Plant response rating, Velvetleaf [6, 19] | Blackgrass plant response rating [10, 21] | Plant response rating, B. signalgrass [14, 19]
10: Giant foxtail plant response rating [3, 18] | Plant response rating, Giant foxtail [3, 19] | Crabgrass plant response rating [4, 18] | Plant response rating, Crabgrass [4, 19] | Plant response rating, Blackgrass [10, 19] | Rape plant response rating [12, 18] | Plant response rating, Rape [12, 19]
0: Corn plant response rating [1, 17] | Corn plant response rating [1, 18] | Corn plant response rating [1, 20] | Corn plant response rating [1, 27] | Corn plant response rating [1, 21] | Plant response rating (0 to 10; 0 is no effect, 10 is complete control), Corn ([1]; Rate 250 g/ha, Postemergence) | Corn plant response rating [1, 22] | Redroot pigweed plant response rating [2, 17] | Redroot pigweed plant response rating [2, 18] | Redroot pigweed plant response rating [2, 21] | Plant response rating (0 to 10; 0 is no effect, 10 is complete control), Crabgrass ([4]; Rate 250 g/ha, Postemergence) | Barnyardgrass plant response rating [5, 23] | Barnyardgrass plant response rating [5, 24] | Barnyardgrass plant response rating [5, 25] | Velvetleaf plant response rating [6, 17] | Nutsedge plant response rating [7, 18] | Plant response rating, Nutsedge [7, 19] | Plant response rating (0 to 10; 0 is no effect, 10 is complete control), Nutsedge ([7]; Rate 250 g/ha, Postemergence) | Morningglory plant response rating [8, 17] | Morningglory plant response rating [8, 18] | Plant response rating, Morningglory [8, 19] | Morningglory plant response rating [8, 21] | Soybean plant response rating [9, 17] | Soybean plant response rating [9, 18] | Soybean plant response rating [9, 21] | Blackgrass plant response rating [10, 20] | S. Flatsedge plant response rating [11, 23] | S. Flatsedge plant response rating [11, 24] | S. Flatsedge plant response rating [11, 25] | S. Flatsedge plant response rating [11, 26] | Rape plant response rating [12, 17] | Plant response rating (0 to 10; 0 is no effect, 10 is complete control), Rape ([12]; Rate 250 g/ha, Postemergence) | Rape plant response rating [12, 22] | Wild oats plant response rating [13, 22] | B. signalgrass plant response rating [14, 17] | B. signalgrass plant response rating [14, 20] | B. signalgrass plant response rating [14, 28] | Plant response rating (0 to 10; 0 is no effect, 10 is complete control), B. signalgrass ([14]; Rate 250 g/ha, Postemergence) | Sugarbeets plant response rating [15, 17] | Sugarbeets plant response rating [15, 22] | Cocklebur plant response rating [16, 17] | Cocklebur plant response rating [16, 18] | Plant response rating, Cocklebur [16, 19] | Cocklebur plant response rating [16, 20] | Cocklebur plant response rating [16, 27] | Cocklebur plant response rating [16, 21]
1: B. signalgrass plant response rating [14, 22] | Sugarbeets plant response rating [15, 21] | Plant response rating (0 to 10; 0 is no effect, 10 is complete control), Cocklebur ([16]; Rate 250 g/ha, Postemergence)
